Test results published in patent US7241738B2, “Peptides effective in the treatment of tumors and other conditions requiring the removal or destruction of cells” (Nymox Pharmaceutical Corporation, priority 2001, dated 2007).
“And” between values parts separate entries of the source, which are not always exact repeats. Equal values may be shown once. Peptide text beside a SMILES is read from it.

Tests used:
[1] = test system: normal rodent muscle tissue, subcutaneous connective tissue, dermis; human and non-human origin tumors; conditions: dermis and a variety of human and non-human origin tumors in rodent models; cited from earlier work
rat prostate = assay: Intraprostatic infusion in rats; prostate volume and histology at 72 hours; assay type: in vivo, rat (Sprague-Dawley); conditions: for prostate histology (H & E): intraprostatic infusion, rats sacrificed after 72 hours
Experimental: (§1) Male Sprague-Dawley rats (300 gram weight range) were anesthetized with ether and given NTP peptide #6 by intraprostatic infusion after open surgical visualization of the prostate. The injections consisted of 300 μl of NTP peptide #6, 1 mg/mL in PBS pH 7.4. (1.0 mg/kg) (n=8), control injections of PBS alone (n=6), and controls with no injection (n=2). Rats were painlessly sacrificed after 72 hours. Prostate glands were dissected, fixed in 10% buffered formalin for 24 hours, embedded in paraffin, sectioned, and stained with H & E. For each animal the entire prostate gland was embedded and sectioned. All stained sections were examined histologically and measured. For each prostate at least 4 histological sections were examined, and for each histological section two cross-sectional diameters (D) at 90° from each other were measured (total of ≧8 measurements per prostate). The mean diameter from these measurements for each prostate was used to estimate volume according to
as §1, with “Related Peptide #2” for “NTP peptide #6”, “Related Peptide #2,” for “NTP peptide #6,”, “>8” for “≧8”
The controls were the same as Example 1.
Normal rats were injected in the prostate as in the above Examples 1 and 4 with Related Peptide #3. Rats were painlessly sacrificed after 72 hours and their prostate glands were examined as in the above Examples 1 and 4.

[2] = test system: muscle tissue, subcutaneous connective tissue, and dermis at injection sites; assay: Injection into skin, subcutaneous tissue and extremity skeletal muscle of normal rats; histopathology at 24 hours; assay type: in vivo, rat
Source text: The individual foci of infiltration were excised, fixed in 10% formalin, embedded in paraffin, and stained and examined by standard histopathological methods.
The controls received saline alone.
Tissues were excised, fixed in 10% formalin, embedded in paraffin, and stained and examined by standard histopathological methods.

AD7c-NTP: ˜41 kD neural thread protein, membrane associated phosphoprotein, SEQ ID NO. 1
causing cell death in vivo [1]: effective agent for causing cell death

IDQQVLSRIKLEIKRCL [NTP peptide #6]
prostate histology (H & E) (rat prostate): extensive loss of glandular epithelium, flattening and atrophy
reduction in prostate volume compared to controls (rat prostate; intraprostatic open infusion 1.0 mg/kg (300 μl, 1 mg/mL in PBS pH 7.4), 72 hours, vs untreated or PBS treated controls, estimated from mean diameters): 45% and > 40%

GDHGRPNLSRLKLAIKYEVKKM [Related Peptide #1]
histopathology of tissue at injection sites ([2]; at 0.1-1 mg/mL in saline): cell death and necrosis of tissue at the injection sites

GLLFPVFSVCYLIAPKSPLGL [Related Peptide #3]
prostate histology (H & E) (rat prostate): Significant cell loss and atrophy of prostate

CC[C@H](C)[C@H](NC(=O)[C@H](CCC(=O)O)NC(=O)[C@H](CC(C)C)NC(=O)[C@H](CCCCN)NC(=O)[C@@H](NC(=O)[C@H](CCCNC(=N)N)NC(=O)[C@H](CO)NC(=O)[C@@H](N)CC(C)C)[C@@H](C)CC)C(=O)N[C@@H](CCCCN)C(=O)O [NTP peptide #7, LSRIKLEIK] (H-LSRIKLEIK-OH; N-terminus and C-terminus assumed)
spread of necrosis beyond the site of injection [2]: did not appear to spread far beyond the site of injection

QQSIAVKFLAVFGVSI [Related Peptide #2]
prostate histology (H & E) (rat prostate): significant cell loss and atrophy in the prostate
